Data: US20090156638A1, “Uses of nordihydroguaiaretic acid (NDGA) and derivatives thereof in preventing transmission of sexually transmitted diseases” (priority 2007, published 2009)

Columns and labels:
ICP4 gene of HSV = experiment: Inhibition of HSV ICP4 gene transcription; assay type: cell-based, HSV-1; conditions: previously determined
Excerpt: (§1) The […] (IE) ICP4 gene of HSV is essential for HSV replication.

[1] = test system: Sp1 regulated transcription of HPV E6/E7; experiment: Sp1 regulated HPV E6/E7 transcription, luciferase assays and C3 tumor lines; assay type: cell-based; conditions: luciferase assays and HPV induced mouse cervical C3 tumor lines
Excerpt: as §1

HSV-1 [2] = experiment: Mutation-insensitivity: IC50 against HSV-1 over ten virus passages; assay type: cell-based
Excerpt: In contrast, host factors, unlike viral factors, are under no selective pressure to mutate and are in general structurally invariable. […] Table 1 compares the IC50 of M4N and acyclovir for ten passages.

HPV 16 = experiment: HPV inhibition in C33A cells; assay type: cell-based; conditions: C-33-A, read-out: Inhibitory Concentration (IC50 or EC50)
[3] = Single dose s.c. rabbit irritation study
Experimental: 4 male and 2 female New Zealand White rabbits received single s.c. injections of saline (1 mL), DMSO (1 mL), 20 mg (0.1 mL) M4N, and 200 mg (1 mL) M4N at each of four sites. Mortality, clinical observations, body weights, dermal irritation, gross necropsy findings, and microscopic pathology were evaluated. […] All injection sites were preserved in 10% neutral-buffered formalin (NBF).

[4] = 14-day toxicity study in rats, toxicokinetics; assay type: in vivo; conditions: for Tmax / Cmax: rat, plasma; for Tmax: 500 mg/kg; for Cmax: Group 10 (500 mg/kg), Day 14
Experimental: The toxicokinetics study consisted of four dose-groups (0, 50, 100, 500 mg/kg) with 6 animals/sex/group. Approximately 0.7 mL of blood was collected from the jugular vein from 3 rats/sex/group rotated in ascending order for each dose group at 0.5, 1, 4, 8, and 12 hours post-dose on Days 1, 7, and 14. Plasma was isolated and analyzed for M4N by HPLC assay.

[5] = 14-day toxicity study in dogs, toxicokinetics; assay type: in vivo, beagle dogs; conditions: for highest mean plasma concentration: Day 14; for Tmax: read-out: median Tmax
Experimental: Three beagle dogs/sex/group received doses of 0 (0.50 mL/kg DMSO), 10, 50, and 100 mg/kg (0.05, 0.25, 0.5 mL/kg) M4N. Approximately 4 mL of blood was collected from the jugular vein at each sampling time point of 0.5, 1, 4, 8, and 12 hours after dosing on Days 1, 7, and 14. Three dogs/sex/group were rotated in ascending order for each dose group. Plasma was isolated and analyzed for M4N by HPLC assay.

[6] = Stability of M4N ointment formulation; assay type: physicochemical; conditions: 2% wt/wt ointment in white petrolatum, 5 mL containers
Excerpt: Two dosing schemes were used.

HSV-1 [7] = test system: HSV-1
Experimental: The dorsal cutaneous guinea pig model system is a well-established model for HSV-1 infection.
In FIGS. 6A-6D, for topical treatment with M4N sections of shaved and depilated dorsal guinea pig skin were infected equally were infected with HSV-1.
McKrae strain). […] Treatments were administered twice daily and photogragphs were taken at day 6 post-infection. […] Regions 1 and 4 were infected with high levels of HSV-1 (1×10^8 pfu/mL), regions 2 and 5 were infected with moderate levels of HSV-1 (1×10^6 pfu/mL) and regions 3 and 6 were infected with low levels of HSV-1 (1×10^4 pfu/mL).

HSV-2 = experiment: Mouse vaginal model of HSV-2 infection; assay type: in vivo, CF-1 mice; conditions: 20 mg/ml in Vaseline
Experimental: The efficacies of […] (FIG. 8A) and […] (FIG. 8A) against HSV-2 in a mouse vaginal model system have also been examined. […] At the end of three days, the vaginal lavages were collected from the washings of the vagina regions. The status of the vaginal HSV-2 infection and replication were examined by their cytopathic effects on cultured human foreskin fibroblast cells. Monitoring and scoring were carried out by three persons independently.

[8] = mouse, in vivo
[9] = test system: acyclovir-resistant strains of HSV-1 (HSV-1^R); conditions: Chen et al., FIG. 3; cited from earlier work
[10] = in vivo, 45 mg/kg; cited from earlier work
HIV-1 = experiment: microbe, parasite or virus in culture; conditions: Human immunodeficiency virus 1, IIIB, COS, read-out: Inhibitory Concentration (IC50 or EC50)
[11] = Fourteen day rabbit intravaginal irritation study
[12] = Human safety, tolerability and pharmacokinetic study of M4N vaginal ointment
[13] = all samples, Days 1 and 7, LOQ 0.4000
[14] = rabbit vaginal irritation study
[15] = fourteen women, M4N ointment/placebo crossover

For `COc1ccc(C[C@@H](C)[C@@H](C)Cc2ccc(OC)c(OC)c2)cc1OC` [M4N, tetra-O-methyl-nordihydroguaiaretic acid], the “inhibition of ICP4 gene transcription” value (ICP4 gene of HSV) was “effectively inhibit ICP4 gene transcription”, the “reduction of Sp1 regulated transcription of HPV E6/E7” value [1] was “dramatically reduces Sp1 regulated transcription of HPV E6/E7” and the IC50 (HSV-1 [2]; Human alphaherpesvirus 1, HSV-1 passage 1) was 11.7 µM. It also gave an IC50 (HSV-1 [2]; Human alphaherpesvirus 1, HSV-1 passage 2) of 4.4 µM, an IC50 (HSV-1 [2]; Human alphaherpesvirus 1, HSV-1 passage 3) of 8.24 µM and an IC50 (HSV-1 [2]; Human alphaherpesvirus 1, HSV-1 passage 4) of 5.97 µM. The IC50 (HSV-1 [2]; Human alphaherpesvirus 1, HSV-1 passage 5) was 6.48 µM, the IC50 (HSV-1 [2]; Human alphaherpesvirus 1, HSV-1 passage 6) was 6.98 µM and the IC50 (HSV-1 [2]; Human alphaherpesvirus 1, HSV-1 passage 7) was 6.98 µM. The IC50 (HSV-1 [2]; Human alphaherpesvirus 1, HSV-1 passage 8) was 9.91 µM, the IC50 (HSV-1 [2]; Human alphaherpesvirus 1, HSV-1 passage 9) was 8.82 µM and the IC50 (HSV-1 [2]; Human alphaherpesvirus 1, HSV-1 passage 10) was 4.77 µM. For the same compound, the “change in IC50 against HSV-1” value (HSV-1 [2]; following ten passages of virus) was “no increase in the IC50”, the IC50 (HPV 16) was 30 µM and the “histopathology of injection sites compared to DMSO vehicle sites” value ([3]; rabbit, in vivo, sc) was “slight increase in the intensity of reactions”. The “effect on body weight or mortality” value ([3]; single s.c. injection, any dose group) was “No treatment-related effect”, the “AUClast, females relative to males” value ([4]; Group 10, Day 14) was roughly 4 times and the plasma concentrations ([4]; Groups 8 and 9, Day 14, LOQ 0.4000) was less than 400 ng/mL. The plasma concentrations [4, 13] was less than 400 ng/mL, the Tmax ([4]; female, females, Group 10, Day 14) was 4 h and the Cmax ([4]; female, females) was 537 ng/mL. It also gave a Tlast ([4]; females) of 12 h, a Tmax ([4]; male, males, Group 10, Day 14) of 0.5 h and a Cmax ([4]; male, males) of 333 ng/mL. For the same compound, the Tlast ([4]; males) was 8 h, the “highest mean plasma concentration” value ([5]; Group 3 (50 mg/kg)) was 1.004 µg/mL and the “AUClast, males relative to females” value ([5]; Group 3, Day 14) was “approximately 3 times”. The Tlast ([5]; Group 3 females) was 4 h, the “highest mean plasma concentration” value ([5]; Group 4 (100 mg/kg)) was 1.096 µg/mL and the “AUClast, males relative to females” value ([5]; Group 4, Day 14) was roughly 2 times. It also gave a plasma concentrations [5, 13] of less than 400 ng/mL, a concentration at 14 day ([5]; both sexes, beagle, dog, plasma, Group 2 (10 mg/kg), Day 14, read-out: plasma concentration, only sample greater than LOQ) of 471 ng/mL and a Tmax ([5]; both sexes, beagle, dog, plasma, Groups 3 and 4 except Group 3 males) of 4 h. For the same compound, the Cmax ([5]; both sexes, beagle, dog, plasma, all groups) was 1000 ng/mL, the “median Tlast” value ([5]; except Group 3 females) was 12 h and the Tmax ([5]; male, beagle, dog, plasma, 50 mg/kg, Group 3 males) was 8 h. The “time remained stable at room temperature” value [6] was 6 months, the “efficacy by time of first treatment after infection” value (HSV-1 [7]; 170 μM, first treated 10 min, 24 h, 48 h, 72 h after infection) was “better efficacy when treatment commenced shortly, within 24, after infection” and the “inhibition of HSV-1 induced cutaneous lesion formation and viral shedding” value (HSV-1 [7]; topical application, guinea pig) was “effectively inhibited HSV-1 induced cutaneous lesion formation and viral shedding”. The “toxicity or dermal irritation” value (HSV-1 [7]; topical, even at the highest soluble concentrations (150 mM)) was “no evidence of toxicity or dermal irritation”, the “infection in the other 4 mice” value (HSV-2) was “very little infection” and the “mice fully infected, out of 8 mice” value (HSV-2) was 4. For the same compound, the “score of the fully infected mice” value (HSV-2) was 34, the toxicity [8] was “no toxicity” and the “efficacy against acyclovir-resistant strains of HSV-1” value [9] was “retains complete efficacy”. The “tolerability on intravenous administration” value [10] was “generally good tolerability”, the IC50 (HIV-1) was 11 µM and the early deaths ([11]; 2% w/w intravaginal, 1 mL once daily for 14 days) was “no early deaths”. For the same compound, the “gross pathology (enlarged liver, irregularly shaped femur, rabbit 32092)” value ([11]; Group 2) was “incidental findings and not test article related”, the hematology vs controls ([11]; Study Day 15, Group 2 (2% w/w), attributed to individual animal variation) was “statistically significant lower absolute basophil count” and the “clinical chemistry vs controls” value ([11]; Study Day 15, Group 2, attributed to individual animal variation) was “statistically significant lower ALT”. The “cumulation after day 14 dosing” value ([11]; female rabbits, topical per vaginam) was “no resultant evidence of cumulation”, the blood concentrations seen ([11]; female rabbits, topical per vaginam, 4 hours post first dose and day 14) was no more than 10 ng/mL and the “start of absorption into the blood” value [11, 14] was 30 min. For the same compound, the “time of peak absorption into the blood” value [11, 14] was 4 h, the “effect on measured clinical pathology parameters” value ([11]; repeated intravaginal administration for 14 days) was “no apparent test article-related effect” and the tolerability ([12]; 90 mg (2% wt/wt) intravaginally once per day for 7 days, healthy women) was “well tolerated”. The “detection in serum pharmacokinetic samples” value ([12]; days 1 and 7, 1, 2, 4, 6 hours after dosing, lower limit of detection 1 ng/mL) was “no detection of M4N”, the abdominal pain reported [12, 15] was 1 subjects and the groin pain reported [12, 15] was 1 subjects. For the same compound, the headaches reported [12, 15] was 3 subjects, the tooth abscess reported [12, 15] was 1 subjects and the “upper respiratory tract infection reported” value [12, 15] was 2 subjects. For the same compound, the “application site irritation reported” value ([12]; might have been caused by the M4N ointment) was 1 subjects.
